The values that follow are results of earlier work, collected in patent US20250222110A1, “METHODS AND COMPOSITIONS FOR TREATMENT OF AGE-RELATED CATARACTS” (LIVIONEX, Inc., priority 2024, published 2025).

For this data set the following is noted: 79° F.

Take `CS(C)(=O)=O` [MSM, methylsulfonylmethane]: the water solubility is listed as 34 % w/v.
